In ChEMBL document CHEMBL1250491, “Multivariate QSAR study on the antimutagenic activity of flavonoids against 3-NFA on Salmonella typhimurium TA98” (2010):

Tested on: Salmonella typhimurium
Experiment: Antimutagenic activity in Salmonella Typhimurium TA98 assessed as inhibition of 3-nitrofluoranthene-induced mutation by Ames test
Format: functional, Salmonella enterica subsp. enterica serovar Typhimurium

In order of rising pID50:
1. COc1ccc(-c2cc(=O)c3c(OC)c(OC)c(OC)c(OC)c3o2)cc1 [TANGERETIN]  4.967
2. C[C@@H]1O[C@@H](OC[C@H]2O[C@@H](Oc3c(-c4ccc(O)c(O)c4)oc4cc(O)cc(O)c4c3=O)[C@H](O)[C@@H](O)[C@@H]2O)[C@H](O)[C@H](O)[C@H]1O [RUTIN]  5.022
3. COc1ccccc1-c1cc(=O)c2ccccc2o1  5.046
4. O=c1cc(-c2ccc(O)c(O)c2)oc2cc(O[C@@H]3O[C@H](CO)[C@@H](O)[C@H](O)[C@H]3O)cc(O)c12 [GALUTEOLIN]  5.092
5. O=c1c(O)c(-c2ccc(O)c(O)c2)oc2cc(O)cc(O)c12 [QUERCETIN]  5.143
6. O=c1cc(-c2ccccc2)oc2cccc(O)c12 [5-HYDROXYFLAVONE]  5.357
7. O=c1cc(-c2ccccc2)oc2cc(O)ccc12 [7-HYDROXYFLAVONE]  5.456
8. COc1ccc2oc(-c3ccccc3)c(O)c(=O)c2c1  5.62
9. O=c1cc(-c2ccc(O)cc2)oc2cc(O[C@@H]3O[C@H](CO)[C@@H](O)[C@H](O)[C@H]3O)cc(O)c12 [APIGETRIN]  5.62
10. O=C1C[C@@H](c2ccc(O)cc2)Oc2cc(O)cc(O)c21 [NARINGENIN]  5.886
11. O=c1cc(-c2ccccc2)oc2cc(O)cc(O)c12 [CHRYSIN]  6
12. COc1ccc([C@@H]2CC(=O)c3c(O)cc(O)cc3O2)cc1O [HESPERETIN]  6.097
13. COc1cc(-c2oc3cc(O)cc(O)c3c(=O)c2O)ccc1O [ISORHAMNETIN]  6.097
14. O=c1c(O)c(-c2ccc(O)cc2O)oc2cc(O)cc(O)c12 [MORIN]  6.155
15. O=c1c(O)c(-c2cc(O)c(O)c(O)c2)oc2cc(O)cc(O)c12 [MYRICETIN]  6.222
16. O=c1c(O)c(-c2ccccc2)oc2ccccc12 [FLAVONOL]  6.538
17. O=c1c(O)c(-c2ccc(O)cc2)oc2cc(O)cc(O)c12 [KAEMPFEROL]  6.538
18. O=c1cc(-c2ccccc2)oc2ccc(O)cc12 [6-HYDROXYFLAVONE]  6.699
19. O=c1cc(-c2ccc(O)cc2)oc2cc(O)cc(O)c12 [APIGENIN]  7
